One assay has as its target T1, EGFR d746-750/T790M (Homo sapiens, UniProt P00533, DEL746-750/T790M).
T1 construct: purchased Carna Biosciences (Japan)
Description: EGFR d746-750/T790M enzyme HTRF inhibition assay. In kind it is biochemical. The note with it: 40 μM ATP. As to the method: (§1) Enzyme: EGFR wild type, EGFR T790M/L858R, EGFR T790M and INSR were purchased from Life technology (Madison, Wis.), EGFR d746-750/T790M was purchased from Carna Biosciences (Japan).
(§2) HTRF Kit was purchased from Cis-Bio International which contained the Eu-labeled TK1 antibody, XL665 and biotin-labeled TK1 polypeptide substrates.
(§3) Detecting instrument: Envision (PerkinElmer).
(§4) The test compound was diluted 3-fold to obtain 10 doses of which the final concentration was from 300 nM to 0.015 nM.
EGFR d746-750/T790M Enzyme Reaction Mixture System:
0.025 nM EGFR d746-750/T790M, 1 μM biotin-TK1 peptide, 40 μM ATP enzyme buffer, a total of which was 10 μL. The reaction plate was white Proxiplate 384-Plus plate (PerkinElmer) and the mixture was reacted at 23° C. for 60 minutes.
(§5) Reaction Detection: 10 μL of detection reagent containing Antibody 2 nM and XL665 62.5 nM was added, and the reagent was incubated at 23° C. for 60 minutes. The plates were read by Envision.
(§6) The reading is converted to the suppression rate (%) by the following formula […]/(Max-Min)*100%. IC50 Data was measured by four-parameter curve fitting (Model 205 in XLFITS, IDBS).

Assay [1] has as its system human skin squamous cell A431 xenograft (CDX). Description: Selectivity study in vivo, A431 xenograft (CDX) model. Particulars: Table 5 experiment, AZD9291 5 mg/kg; for Tumor Volume (mm^3) 4 days: day 4, oral once daily: 33, 34, 40, 42, 43 20 mg/kg; for Tumor Volume (mm^3) 11 days: day 11, oral once daily: 33, 34, 40, 42, 43 20 mg/kg; for Tumor Volume (mm^3) 18 days: day 18, oral once daily: 33, 34, 40, 42, 43 20 mg/kg. Set-up: species or system BALB/c nude mice. As to the method:
In this model, the less inhibitory effect on the tumor, the better the selectivity in vivo.
The selective experiments in vivo were performed on BALB/c nude mice that subcutaneously implanted human skin squamous cell A431 xenograft (CDX).
BALB/c nude mice, female, 6-8 weeks, weighted about 18-20 grams, the mice were kept in a special pathogen-free environment and in a single ventilation cage (5 mice per cage). The bedding and water of all the cages were disinfected before use. All animals were free to obtain standard certified commercial laboratory diets. All mice were purchased from mice of Shanghai BK Laboratory Animal Co., LTD for research. The tumor tissue (20-30 mm^3) was implanted subcutaneously in the […] of each mouse for tumor growth. The experiment was started when the average tumor volume reached about 150-200 mm^3. The test compound was orally administered (compounds 17, 30, 37 and 38 were administered once daily at 20 mg/kg, the compound AZD9291 was administered once daily at 5 mg/kg, the compound CO-1686 was administered twice daily at 50 mg/kg, the compound Erlotinib was administered once daily at 75 mg/kg and the compound Afatinib was administered once daily at 7.5 mg/kg, 21 days of continuous administration. The data were shown in Table 4; compounds 33, 34, 40, 42 and 43 were administered once daily at 20 mg/kg and compound AZD9291 was administered once daily at5 mg/kg, 21 days of continuous administration. The tumor volume was measured twice a week with a two-dimensional caliper and the volume was measured in cubic millimeters and calculated by the following formula: V=V=0.5 a×b2, where a and b were the major and minor diameters of the tumor, respectively.

The subject of assay [2] is NCI-H1975 lung cancer patient-derived xenograft (CDX). Description: Pharmacodynamics study in vivo, NCI-H1975 xenograft (CDX) model. Also noted: species or system BALB/c nude mice. The note with it: AZD9291 5 mg/kg; for Tumor Volume (mm^3) 4 days: day 4, oral daily: compound 30 10 mg/kg, 33, 34, 40, 42, 43 20 mg/kg; for Tumor Volume (mm^3) 7 days: day 7, oral daily: compound 30 10 mg/kg, 33, 34, 40, 42, 43 20 mg/kg; for Tumor Volume (mm^3) 11 days: day 11, oral daily: compound 30 10 mg/kg, 33, 34, 40, 42, 43 20 mg/kg; for Tumor Volume (mm^3) 14 days: day 14, oral daily: compound 30 10 mg/kg, 33, 34, 40, 42, 43 20 mg/kg; for Tumor Volume (mm^3) 18 days: day 18, oral daily: compound 30 10 mg/kg, 33, 34, 40, 42, 43 20 mg/kg. As to the method:
For example, after 21 days of administration, the tumor volume of the representative compounds 30, 33, 34, 40, 42 and 43 decreased from the beginning of about 149 mm^3 to 3-39 mm^3.
The pharmacological experiments in vivo were performed on BALB/c nude mice that subcutaneously implanted NCI-H1975 lung cancer […] xenograft (CDX).
BALB/c nude mice, female, 6-8 weeks, weighted about 18-22 grams, the mice were kept in a special pathogen-free environment, and in a single ventilation cage (5 mice per cage). The bedding and water of all the cages were disinfected before use. All animals were free to obtain standard certified commercial laboratory diets. A total of 100 mice were purchased from Beijing Vital for research. The tumor tissue (20-30 mm^3) was implanted subcutaneously in the […] of each mouse for tumor growth. The experiment was started when the average tumor volume reached about 150-200 mm^3. The test compound was orally administered daily (compound 30 was administered at 10 mg/kg, compound 33, 34, 40, 42 and 43 were administered at 20 mg/kg and compound AZD9291 was administered continuously for 21 days at 5 mg/kg, the data were shown in Table 3). The tumor volume was measured twice a week with a two-dimensional caliper and the volume was measured in cubic millimeters and calculated by the following formula: V=V=0.5 a×b2, where a and b were the major and minor diameters of the tumor, respectively.

The subject of assay [3] is NCI-H1975 cells EGFR L858R/T790M. Description: NCI-H1975 cell viability assay (Cell Titer-Glo, 6 days). It counts as cell-based. The note with it: Homo sapiens, 144 h. As to the method: (§7) RPMI1640, fetal bovine serum, penicillin/streptomycin solution were purchased from Life Technology (Madison, Wis.). Cell Titer-Glo luminescent cell viability reagents were purchased from Promega (Madison, Wis.). A431 cell line and NCI-H1975 cell line were purchased from European Collection of Cell Cultures (ECACC). Plate Reader Instrument: Envision (PerkinElmer).
(§8) 384-Well plates, 300 of A431 cells and NCI-H1975 cells were inoculated per well, a volume of which was 45 μL. And the plates were incubated overnight in a CO2 incubator at 37° C. The test compound was diluted 3-fold to obtain 10 dose concentrations, the final concentrations of which were from 10 μM to 0.508 nM, two wells. The middle plates were filled with 49 μL of medium per well. 1 μL of compound in the gradient dilution compound plates was transferred to the middle plates and mixed well. And then 5 μL liquid in the middle plates was taken to the cell plates. The cells were incubated in a CO2 incubator for 6 days. After 6 days, 25 μL of detection reagents was added. And then the mixture was incubated at room temperature for 10 minutes and the plates were read by Envision.
(§9) The reading is converted to the suppression rate by the following formula (%) (Max-Sample)/(Max-Min)*100%. IC50 Data was measured by Four-parameter curve fitting (Model 205 in XLFIT5, IDBS).

In a further assay the target is T2, EGFR wild type (Homo sapiens, UniProt P00533).
T2 construct: purchased Life technology (Madison, Wis.)
Description: Wild-type EGFR enzyme HTRF inhibition assay. The note with it: 25 μM ATP, read-out: EGFR WT IC50. In kind it is biochemical. As to the method: as §1, §2, §3, §4
Wild-Type EGFR Enzyme Reaction Mixture System:
0.05 nM Wild-type EGFR, 1 μM biotin-TK1 peptide, 25 μM ATP enzyme buffer, a total of which was 10 μL. The reaction plate was white Proxiplate 384-Plus plate (PerkinElmer) and the mixture was reacted at 23° C. for 60 minutes.
as §5, §6

Another assay relates to A431 cells EGFR WT. Description: A431 cell viability assay (Cell Titer-Glo, 6 days). It counts as cell-based, human. Particulars: for IC50: Homo sapiens, A-431, 144 h, A431 cells, 6 days; for A431:NCI-H1975 (ratio): ratio of cell IC50 A431 to NCI-H1975. As to the method:
as §7, §8, §9

The target in another assay is T3, EGFR T790M/L858R (Homo sapiens, UniProt P00533, L858R/T790M).
T3 construct: purchased Life technology (Madison, Wis.)
The experiment in a line: EGFR T790M/L858R enzyme HTRF inhibition assay. In kind it is biochemical. Particulars: 20 μM ATP, read-out: EGFR L858R/T79M IC50. As to the method:
as §1, §2, §3, §4
EGFR T790M/L858R Enzyme Reaction Mixture System:
0.04 nM EGFR T790M/L858R, 1 μM biotin-TK1 peptide, 20 μM ATP enzyme buffer, a total of which was 10 μL. The reaction plate was white Proxiplate 384-Plus plate (PerkinElmer) and the mixture was reacted at 23° C. for 60 minutes.
as §5, §6

T2 sequence (P00533 25-1210): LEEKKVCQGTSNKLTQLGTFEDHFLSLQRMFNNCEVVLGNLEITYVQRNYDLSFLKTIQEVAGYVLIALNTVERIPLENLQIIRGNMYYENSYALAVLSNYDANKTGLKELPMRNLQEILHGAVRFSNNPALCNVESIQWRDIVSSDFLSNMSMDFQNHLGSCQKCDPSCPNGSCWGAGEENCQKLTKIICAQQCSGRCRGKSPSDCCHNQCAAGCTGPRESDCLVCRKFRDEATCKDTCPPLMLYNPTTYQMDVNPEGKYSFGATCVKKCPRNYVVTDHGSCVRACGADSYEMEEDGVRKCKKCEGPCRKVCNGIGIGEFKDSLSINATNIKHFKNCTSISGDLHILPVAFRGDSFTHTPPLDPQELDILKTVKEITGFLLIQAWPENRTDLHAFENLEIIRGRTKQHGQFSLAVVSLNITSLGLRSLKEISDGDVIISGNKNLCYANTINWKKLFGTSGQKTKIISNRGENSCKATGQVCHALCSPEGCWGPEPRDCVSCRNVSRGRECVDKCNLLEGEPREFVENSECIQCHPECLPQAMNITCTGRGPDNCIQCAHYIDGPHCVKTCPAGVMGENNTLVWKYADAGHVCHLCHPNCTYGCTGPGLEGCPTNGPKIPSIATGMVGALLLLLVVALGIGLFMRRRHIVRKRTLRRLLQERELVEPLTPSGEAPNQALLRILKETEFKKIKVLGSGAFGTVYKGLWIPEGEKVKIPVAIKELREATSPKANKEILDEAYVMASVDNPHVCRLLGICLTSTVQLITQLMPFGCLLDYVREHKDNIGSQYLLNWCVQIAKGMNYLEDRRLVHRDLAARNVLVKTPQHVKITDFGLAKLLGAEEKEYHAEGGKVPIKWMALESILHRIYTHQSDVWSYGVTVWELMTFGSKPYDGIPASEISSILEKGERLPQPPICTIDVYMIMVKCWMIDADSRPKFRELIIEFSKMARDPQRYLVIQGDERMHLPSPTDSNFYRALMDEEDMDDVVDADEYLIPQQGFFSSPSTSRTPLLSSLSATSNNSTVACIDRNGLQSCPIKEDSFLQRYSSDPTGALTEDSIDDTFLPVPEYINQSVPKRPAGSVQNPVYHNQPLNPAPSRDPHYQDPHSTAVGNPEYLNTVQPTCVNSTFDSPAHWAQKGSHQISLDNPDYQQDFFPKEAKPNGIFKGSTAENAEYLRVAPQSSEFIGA
T1 sequence (P00533 with tags, fused parts or gaps DEL746-750/T790M limits assumed): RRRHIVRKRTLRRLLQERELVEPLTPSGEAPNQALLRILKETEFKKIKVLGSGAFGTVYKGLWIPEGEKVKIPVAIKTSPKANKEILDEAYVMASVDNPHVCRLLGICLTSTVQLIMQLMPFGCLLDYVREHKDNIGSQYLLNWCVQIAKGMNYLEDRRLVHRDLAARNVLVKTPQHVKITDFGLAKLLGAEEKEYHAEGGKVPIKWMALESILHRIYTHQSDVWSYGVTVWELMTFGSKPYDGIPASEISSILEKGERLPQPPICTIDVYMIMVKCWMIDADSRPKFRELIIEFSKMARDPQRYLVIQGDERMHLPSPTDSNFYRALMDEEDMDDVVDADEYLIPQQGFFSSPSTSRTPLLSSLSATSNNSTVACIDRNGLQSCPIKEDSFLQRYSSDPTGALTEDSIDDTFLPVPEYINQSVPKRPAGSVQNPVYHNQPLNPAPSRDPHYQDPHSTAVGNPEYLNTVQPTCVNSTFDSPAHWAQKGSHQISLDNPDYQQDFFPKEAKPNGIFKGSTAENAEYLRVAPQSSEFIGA
T3 sequence (P00533 25-1210 T790M/L858R): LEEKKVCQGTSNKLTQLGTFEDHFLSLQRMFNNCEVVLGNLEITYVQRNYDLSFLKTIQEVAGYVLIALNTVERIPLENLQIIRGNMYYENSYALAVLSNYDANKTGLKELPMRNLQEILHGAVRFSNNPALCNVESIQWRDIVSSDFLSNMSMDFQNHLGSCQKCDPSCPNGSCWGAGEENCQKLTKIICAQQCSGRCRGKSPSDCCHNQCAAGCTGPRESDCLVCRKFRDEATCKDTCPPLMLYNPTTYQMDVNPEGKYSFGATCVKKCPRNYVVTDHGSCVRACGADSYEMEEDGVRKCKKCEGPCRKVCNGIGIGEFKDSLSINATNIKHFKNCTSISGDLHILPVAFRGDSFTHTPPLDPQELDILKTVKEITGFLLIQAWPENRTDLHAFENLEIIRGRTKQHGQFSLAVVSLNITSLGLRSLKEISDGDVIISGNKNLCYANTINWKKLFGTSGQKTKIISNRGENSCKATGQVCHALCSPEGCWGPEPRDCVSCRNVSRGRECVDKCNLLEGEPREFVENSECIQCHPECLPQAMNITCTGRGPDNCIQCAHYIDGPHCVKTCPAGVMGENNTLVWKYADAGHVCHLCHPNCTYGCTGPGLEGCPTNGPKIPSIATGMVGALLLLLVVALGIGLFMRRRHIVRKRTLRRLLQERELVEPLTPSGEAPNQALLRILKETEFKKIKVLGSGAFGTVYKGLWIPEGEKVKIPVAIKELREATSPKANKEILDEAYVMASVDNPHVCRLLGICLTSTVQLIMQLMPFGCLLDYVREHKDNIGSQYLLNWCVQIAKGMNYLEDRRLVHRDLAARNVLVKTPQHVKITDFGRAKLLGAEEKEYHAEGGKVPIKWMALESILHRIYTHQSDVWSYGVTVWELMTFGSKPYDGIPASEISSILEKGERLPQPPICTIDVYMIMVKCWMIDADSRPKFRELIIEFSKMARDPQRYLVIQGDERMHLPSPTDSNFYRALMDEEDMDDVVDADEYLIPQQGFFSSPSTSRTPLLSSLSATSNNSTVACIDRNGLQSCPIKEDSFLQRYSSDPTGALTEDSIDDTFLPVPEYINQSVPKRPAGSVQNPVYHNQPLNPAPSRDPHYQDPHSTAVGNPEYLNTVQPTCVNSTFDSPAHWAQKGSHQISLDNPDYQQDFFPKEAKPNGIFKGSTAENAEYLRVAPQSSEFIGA

`C=CC(=O)Nc1cc(Nc2ncc(F)c(-c3c4n(c5cc(Cl)ccc35)CCOC4)n2)c(OC)cc1N(C)CCN(C)C` [Embodiment 34, N-(5-((4-(7-Chloro-3,4-dihydro-1H-[1,4]oxazino[4,3-a]indol-10-yl)-5-fluoropyrimidin-2-yl)amino)-2-((2-(dimethylamino)ethyl)(methyl)amino)-4-methoxyphenyl)acrylamide]: the IC50 against EGFR d746-750/T790M was 0.6 nM. Moreover, in assay [1], the “Tumor Volume (mm^3) 4 days” value came out at 237 mm^3, the “Tumor Volume (mm^3) 11 days” value is reported as 646 mm^3 and the “Tumor Volume (mm^3) 18 days” value is recorded as 1357 mm^3. Besides, in assay [2], the “Tumor Volume (mm^3) 4 days” value was 102 mm^3, the “Tumor Volume (mm^3) 7 days” value is reported as 80 mm^3, the “Tumor Volume (mm^3) 11 days” value amounted to 70 mm^3 and the “Tumor Volume (mm^3) 14 days” value is reported as 59 mm^3. Further, the “Tumor Volume (mm^3) 18 days” value in assay [2] is reported as 35 mm^3. In assay [3], this molecule had an IC50 of 68 nM. Besides, at EGFR wild type, the IC50 was 2 nM. In the assay on A431 cells EGFR WT, the IC50 turned out to be 2100 nM and the “A431:NCI-H1975 (ratio)” value was found to be 31. The IC50 at EGFR T790M/L858R stood at 0.8 nM.

Turning to `C=CC(=O)Nc1cc(Nc2ncc(F)c(-c3c4n(c5ccccc35)C(C)(C)COC4)n2)c(OC)cc1N(C)CCN(C)C.CS(=O)(=O)O` [Embodiment 36, N-(5-((4-(4,4-Dimethyl-3,4-dihydro-1H-[1,4]oxazino[4,3-a]indol-10-yl)-5-fluoropyrimidin-2-yl)amino)-2-((2-(dimethylamino)ethyl)(methyl)amino)-4-methoxyphenyl)acrylamide methanesulfonate], the IC50 against EGFR d746-750/T790M came out at 1.3 nM; in assay [3], 175 nM; on EGFR wild type it was 2.7 nM; in the assay with A431 cells EGFR WT it was 438 nM; on EGFR T790M/L858R it was 1.3 nM. For the same molecule, the “A431:NCI-H1975 (ratio)” value in the assay on A431 cells EGFR WT is 2.5.

In the case of `C=CC(=O)Nc1cc(Nc2ncc(F)c(-c3c4n(c5ncccc35)CCOC4)n2)c(OC)cc1N(C)CCN(C)C` [Embodiment 39, N-(5-((4-(8,9-Dihydro-6H-pyrido[2,3]pyrrolo[4,5-α][1,4]oxazin-5-yl)-5-fluoropyrimidin-2-yl)amino)-2-((2-(dimethylamino)ethyl)(methyl)amino)-4-methoxyphenyl)acrylamide], the IC50 against EGFR d746-750/T790M was determined as 0.6 nM; in assay [3] it was 288 nM; on EGFR wild type, 5.3 nM; with A431 cells EGFR WT, 1570 nM; on EGFR T790M/L858R it was 0.5 nM. Also, in the assay on A431 cells EGFR WT, the “A431:NCI-H1975 (ratio)” value came out at 5.5.

For `C=CC(=O)Nc1cc(Nc2nccc(-c3cn4c5c(cccc35)OCC(C)(C)C4)n2)c(OC)cc1N(C)CCN(C)C` [Embodiment 41, N-(5-((4-(3,3-Dimethyl-3,4-dihydro-2H-[1,4]oxazepino[2,3,4-hi]indol-7-yl)pyrimidin-2-yl)amino)-2-((2-(dimethylamino)ethyl)(methyl)amino)-4-methoxyphenyl)acrylamide], the IC50 on EGFR d746-750/T790M worked out at 2.6 nM; in assay [3], 201 nM; on EGFR wild type, 4.9 nM; with A431 cells EGFR WT, 1720 nM; on EGFR T790M/L858R, 1.5 nM. The “A431:NCI-H1975 (ratio)” value with A431 cells EGFR WT came out at 8.5.

Turning to `C=CC(=O)Nc1cc(Nc2nccc(-c3cn4c5c(cccc35)OC3(CC3)C4)n2)c(OC)cc1N(C)CC(C)(C)N(C)C` [Embodiment 43, N-(5-((4-(3H-Spiro[[1,4]oxazino[2,3,4-hi]indole-2,1′-cyclopropan]-6-yl)pyrimidin-2-yl)amino)-2-((2-(dimethylamino)-2-methylpropyl)(methyl)amino)-4-methoxyphenyl)acrylamide], in assay [1], the “Tumor Volume (mm^3) 4 days” value is 238 mm^3, the “Tumor Volume (mm^3) 11 days” value was determined as 516 mm^3 and the “Tumor Volume (mm^3) 18 days” value is 820 mm^3. Further, in assay [2], the “Tumor Volume (mm^3) 4 days” value amounted to 92 mm^3, the “Tumor Volume (mm^3) 7 days” value was 65 mm^3, the “Tumor Volume (mm^3) 11 days” value is 61 mm^3 and the “Tumor Volume (mm^3) 14 days” value was 45 mm^3. In assay [2], the “Tumor Volume (mm^3) 18 days” value is 23 mm^3. This molecule had an IC50 in assay [3] of 264 nM. In addition, in the assay with A431 cells EGFR WT, the IC50 worked out at 548 nM and the “A431:NCI-H1975 (ratio)” value was determined as 2.1.

Source of the values: US10093656B2, “Fused-ring or tricyclic aryl pyrimidine compound used as kinase inhibitor” (NANJING SANHOME PHARMACEUTICAL CO., LTD, priority 2015, dated 2018).
